Reference: patent US9433683B2, “Reversible pegylated drugs” (Yeda Research and Development Co., Ltd., priority 2003, dated 2016)
Where “and” joins values, the source holds several entries; their conditions need not be identical. Equal values may be shown once.

Assays:
C57BL/6J male mice = test: Food intake (re-feeding after 24 h starvation) in mice; format: in vivo, mouse
Description: Drinking water was provided at all times.
Results are average of four identical experiments.
Drinking water was provided at all times. […] A minimum interval of 1 h was introduced between injection and re-feeding to avoid a stress-dependent decrease in food intake. The amount of food consumed per group was determined at the end of the feeding period. Remaining chow was weighed after the 2 h re-feeding period and the cumulative food intake per 10 mice was calculated. Values of food intake in replicate experiments were normalized according to the saline controls. Results are expressed as food intake per 10 mice±SD from 2-5 replicate experiments.
(vi) Statistical analysis. The significance of differences in food consumption was determined by the Student's t-test, using the total weight of food consumed by each group of 10 mice as a single value. A saline-injected group of 10 mice was included in each experiment as a control. A two-tailed, paired t-test was performed between the control and treated groups.

[1] = Hydrolysis of conjugates / release of parent drug upon incubation at pH 8.5, 37° C. (HPLC or TNBS)
[2] = molecular target: T1, hGH-receptor preparation extracted from rabbit liver plasma membranes (Oryctolagus cuniculus, UniProt P19941); test: 125I-hGH displacement from hGH-receptor preparation; format: binding
T1 construct: enriched hGH-receptor preparation extracted from rabbit liver plasma membranes; from tissue; host or cells: rabbit liver plasma membranes
T1 sequence (P19941 19-638): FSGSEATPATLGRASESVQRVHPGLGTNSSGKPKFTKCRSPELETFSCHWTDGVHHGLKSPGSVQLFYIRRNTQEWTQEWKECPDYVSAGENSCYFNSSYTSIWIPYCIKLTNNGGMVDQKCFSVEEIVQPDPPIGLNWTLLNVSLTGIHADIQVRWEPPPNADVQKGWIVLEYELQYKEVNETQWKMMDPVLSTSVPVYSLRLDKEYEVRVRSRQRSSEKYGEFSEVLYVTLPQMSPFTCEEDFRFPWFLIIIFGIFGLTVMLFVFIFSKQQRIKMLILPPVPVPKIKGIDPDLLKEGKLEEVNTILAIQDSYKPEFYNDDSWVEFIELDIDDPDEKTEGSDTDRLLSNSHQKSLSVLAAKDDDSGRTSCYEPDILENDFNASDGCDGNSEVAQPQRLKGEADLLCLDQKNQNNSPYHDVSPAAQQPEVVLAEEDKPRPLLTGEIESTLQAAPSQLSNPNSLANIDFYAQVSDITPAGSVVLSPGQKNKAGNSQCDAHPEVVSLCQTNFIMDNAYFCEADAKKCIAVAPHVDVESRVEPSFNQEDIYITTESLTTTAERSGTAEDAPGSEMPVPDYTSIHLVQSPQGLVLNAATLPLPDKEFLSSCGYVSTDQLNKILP
Description: PEG40000-FMS-hGH (1 mg/ml) was incubated in 0.1 M phosphate buffer, 0.6% BSA and −2 mM NaN3 at 37° C. Aliquots were withdrawn at the indicated time points, and analyzed for their potencies to displace ^125I-hGH from enriched hGH-receptor preparation extracted from rabbit liver plasma membranes. Native hGH displaces ^125I-hGH in this assay half maximally at a concentration of 0.3±0.03 nM. […] PEG40000FMS-hGH (1 mg protein) was incubated as described above. At the indicated time points, 0.1 ml aliquots withdrawn and subjected to analytical HPLC analysis.
The hGH displacement assay was performed as previously described (Tsushima et al., 1980).

[3] = tested on: Escherichia coli (E. coli strain N-4156-W.T); test: Inhibition of E. coli replication (antibacterial potency of gentamicin and PEG-Fmoc-gentamicin); format: cell-based
[4] = Pharmacokinetic profile of SC 125I-insulin and 125I-HSA in rats; conditions: 10 μg 125I-labeled protein
Description: Blood aliquots obtained from the tail vein at the indicated time points were spotted onto Whatman #3 paper and weighed immediately. Each paper was washed with 10% TCA and measured for its radioactive content. […] Each point in the figure represents the arithmetic mean of 5 rats±SE.
Rats were maintained at 24° C. under conditions of controlled lighting and were fed ad libitum. […] Data are presented as means±SE.
For comparison, we subcutaneously administered ^125I-insulin under similar experimental conditions.

CD1-mice = test: Glucose-lowering potency of insulin and PEG5000-Fmoc-insulin in mice (SC or IP); format: in vivo, mouse
Description: Mice received SC, either native insulin (Zn^2+-free, 1.72 nmole/mouse in 0.2 ml PBS buffer) or (PEG5000-Fmoc)1-insulin (17.2 nmole/mouse, in 0.2 ml PBS buffer). Blood glucose levels were determined at the indicated time points. Each point is the arithmetic mean±SEM of blood glucose of five mice.
Groups of mice received IP either insulin (Zn^2+-free, 0.345 nmol/mouse, in 0.2 ml PBS buffer) or (PEG5000-Fmoc)1-insulin (3.45 nmoles/mouse, in 0.2 ml PBS buffer). Blood glucose levels were determined at the indicated time points. Each point in the figure is the arithmetic mean±SEM of five mice.
(iv) Glucose-lowering potency of insulin and its derivatives was determined in mice following administration under the conditions specified in each experiment. […] Each group consisted of 4-5 mice. Data are presented as means±SEM.
Native insulin (Zn^2+ free, 1.72 nmol/mouse) or (PEG5000-Fmoc)1-insulin (17.2 nmoles/mouse) were administered subcutaneously to groups of mice (n=5 in each group), and the glucose lowering profiles were determined. Native insulin reduced blood glucose level maximally at 30 min.
In order to differentiate between these factors, the subcutaneous compartment was bypassed by administering native insulin (Zn^2+-free, 0.345 nmoles/mouse, in 0.2 ml PBS buffer) or (PEG5000-Fmoc)1-insulin (3.45 nmoles/mouse, in 0.2 ml PBS buffer) intraperitoneally. The glucose lowering capacities were then monitored. Blood glucose levels were determined at different time points.

rat adipocytes [5] = test: Lipogenesis ([U-14C]glucose incorporation into lipids) in rat adipocytes; format: cell-based
Description: (4A) Insulin (17.24 nmoles in 0.2 ml 0.01 M NaHCO3) reacted with increasing concentrations of PEG5000-Fmoc-OSu at a molar excess over the protein as indicated in the figure for 2 hours at 25° C. The number of free amino groups that remained unmodified were quantitated with TNBS.
PEG5000-Fmoc-insulin conjugates containing one and two moles of PEG5000-Fmoc/mole insulin were incubated at a concentration of 0.172 μM in 0.1 M NaHCO3-0.5% bovine serum albumin and 1 mM NaN3 at 37° C. At the indicated time points aliquots were analyzed (in several concentrations for each aliquot) for their lipogenic potencies in rat adipocytes.
Results are expressed as a percentage of maximal stimulation.
(ii) Rat adipocytes were prepared from fat pads of male Wistar rats (100-200 gr) by collagenase digestion as described (Rodbell, 1964). The fat pads were cut into small pieces with scissors and suspended in 3 ml of KRB buffer containing NaCl, 110 mM; NaHCO3, 25 mM; Kcl, 5 mM; KH2PO4, 1.2 mM; CaCl2, 1.3 mM; MgSO4, 1.3 mM; and 0.7% BSA (pH 7.4). […] Five ml of buffer was then added, and the cells were passed through a mesh screen. The cells were then allowed to stand for several minutes in a 15 ml plastic test tube at room temperature, floating, and the buffer underneath was removed. This procedure (suspension, floating, and removal of buffer underneath) was repeated three times.
(iii) Lipogenesis (incorporation of [U-^14C] glucose into the lipids of intact adipocytes). The incorporation of [U-^14C] glucose into adipose tissue in rat adipocytes was performed as described (Moody et al., 1974). Adipocyte suspensions (3×10^5 cells/ml) were divided into plastic vials (0.5 ml per vial) and incubated for 60 min at 37° C. under an atmosphere of carbogen with 0.2 mM [U-^14C]glucose, in either the absence or presence of insulin. Lipogenesis was terminated by adding toluene-based scintillation fluid (1.0 ml per vial) and the radioactivity in extracted lipids was counted.
Rat adipocytes were prepared from the fat pads of male Wistar rats (100-200 g) by collagenase digestion (Rodbel, 1964). Lipogenesis (during which [U^14-C] glucose was incorporated into the lipids) was performed using the procedure of Moody et al (Moody et al., 1974). Diabetes was induced by a single intravenous injection of freshly prepared streptozocin (STZ) solution (55 mg/kg body wt) as previously described (Meyerovitch et al., 1987). Rats were maintained at 24° C. under conditions of controlled lighting and were fed ad libitum. Blood samples for the analysis of blood glucose were taken from the tail veins and measured with a glucose analyzer (Beckman Instruments, Fullerton, Calif.) by the glucose oxidase method. Groups consisted of five Wistar rats weighing 170±5 g. Data are presented as means±SE.

rat adipocytes [6] = test: as above; format: cell-based; conditions: Example 34 assay, 2 h at 37° C.; HSA conjugates taken as 24±3 μg insulin per mg HSA
[7] = human, in vivo; cited from earlier work
[8] = Clark et al., 1996; cited from earlier work
[9] = SC 5 nmol/mouse, 18 h prior to re-feeding

PEG40-FMS-PYY3-36: 1:1 conjugate of PEG40-SH and MAL-FMS-PYY3-36
food consumed in 2 h re-feeding (C57BL/6J male mice; [9]): 4.7±0.14 g chow per 10 mice | reduction in food intake compared with saline (C57BL/6J male mice; [9]): 52% | reduction in food intake (C57BL/6J male mice; SC 5 nmol/mouse, 24 h prior to re-feeding): 27% | half-life of satiety effect, longer than unmodified PYY3-36 (C57BL/6J male mice; mouse, in vivo): 8 fold | cumulative amount of free PYY3-36, % of input conjugate ([1]; after 40 h): 79%

(PEG40-FMS)2-hGH: two PEG40-FMS moieties linked to hGH
native-receptor binding capacity following 50 hours of incubation ([2]; 37° C., normal rat serum or pH 8.5): 70-80%

gentamicin
IC50 [3]: 220 ± 20 nM | concentration inhibiting E. coli replication half-maximally [3]: 0.1 µg/mL

PEG40-PYY3-36: Irreversibly pegylated PYY3-36, one PEG40 residue per PYY3-36 [reference compound]
biological activity of irreversibly pegylated PYY3-36 on food intake (C57BL/6J male mice; SC 5 nmol/mouse, 1 h prior to re-feeding): No significant reduction in food intake

PEG40-FMS-hGH
receptor binding affinity ([2]; in vitro, prior to incubation): no receptor binding affinity | k (h^−1), slope of ln [PEG-FMS conjugate] against time [1]: 0.059 h^−1

insulin: Human (Zn2+-free) insulin [reference compound]
t1/2 of decline in blood [4]: 9.0 ± 1.0 h | time of peak value in blood after administration [4]: 1 ± 0.1 h | time of maximal fall of circulating glucose (CD1-mice; IP, 0.345 nmoles/mouse): 15 min | time of maximal reduction of blood glucose level (CD1-mice; SC, 1.72 nmol/mouse): 30 min | stimulation of lipogenesis above basal levels (rat adipocytes [5]): 4-6 times above basal and 4-5 times above basal | ED50 for stimulation of lipogenesis (rat adipocytes [5]; rat adipocytes, Example 28 assay): 0.2 ± 0.02 ng/mL and 0.15 ± 0.03 ng/mL | ED50 in lipogenic assay (rat adipocytes [6]): 0.3 ± 0.01 ng/mL and 0.3 ng/mL

PEG5000-Fmoc-insulin: insulin preparations with 0.3 to 2.2 mol PEG5000-Fmoc incorporated per mol insulin
biological (lipogenic) potency relative to native insulin (rat adipocytes [5]; 0.3 mol PEG5000-Fmoc/mol insulin incorporated): 87±4% | biological (lipogenic) potency relative to native insulin (rat adipocytes [5]; 0.6 mol PEG5000-Fmoc/mol insulin incorporated): 60±3% | biological (lipogenic) potency relative to native insulin (rat adipocytes [5]; 1.1 mol PEG5000-Fmoc/mol insulin incorporated): 8±1% | biological (lipogenic) potency relative to native insulin (rat adipocytes [5]; 1.5 mol PEG5000-Fmoc/mol insulin incorporated): 4±0.3% | biological (lipogenic) potency relative to native insulin (rat adipocytes [5]; 2.2 mol PEG5000-Fmoc/mol insulin incorporated): less than 1%

(PEG5000-Fmoc)2-insulin: insulin conjugate containing two moles of PEG5000-Fmoc/mole insulin
lipogenic activity, % of native insulin potency (rat adipocytes [5]; after 30±2 hours at pH 8.5, 37° C.): 45±3% | lipogenic activity, % of native insulin potency (rat adipocytes [5]; after 80±4 hours at pH 8.5, 37° C.): 90% | lag period before regeneration of lipogenic potency (rat adipocytes [5]; incubation at pH 8.5, 37° C.): 10 ± 1 h and 10 h

Nα-Nε-diacetyl-PYY3-36: PYY3-36 acetylated at its two amino groups [reference compound]
food consumed in 2 h re-feeding (C57BL/6J male mice; 20 μg per mouse): 10.54±0.08 g chow per 10 mice

(PEG5000-Fmoc)1-insulin: about one mol PEG-Fmoc per mol insulin
return to normoglycemia, slower than native hormone (CD1-mice; IP administration): 3.4 fold | time of maximal fall of circulating glucose (CD1-mice; IP, 3.45 nmoles/mouse): 60 min | time of return to normal glucose values after administration (CD1-mice; IP, 3.45 nmoles/mouse): 6 h | additional time maintained at the low glucose level (CD1-mice; SC, 17.2 nmoles/mouse): 4 h | time of maximal lowering of circulating glucose (CD1-mice; SC, 17.2 nmoles/mouse): 4 h | half time of return to normoglycemic values relative to native insulin (CD1-mice; single SC administration): 6.7 fold | lipogenic activity, % of native potency (rat adipocytes [5]; after 2 hours at pH 8.5, 37° C.): 16% | lipogenic activity, % of native potency (rat adipocytes [5]; after 4 hours at pH 8.5, 37° C.): 24% | lipogenic activity, % of native potency (rat adipocytes [5]; after 10 hours at pH 8.5, 37° C.): 30% | lipogenic activity, % of native potency (rat adipocytes [5]; after 17 hours at pH 8.5, 37° C.): 36% | lipogenic activity, % of native potency (rat adipocytes [5]; after 80 hours at pH 8.5, 37° C.): 95% | biological (lipogenic) potency of the native hormone (rat adipocytes [5]; prior to hydrolysis / time 0): 7±1%

hGH: Recombinant hGH
t1/2 of clearance from the circulatory system [7]: 20 to 30 min

(PEG5000)5 hGH: hGH with about five PEG5000 chains linked irreversibly (Clark et al., 1996)
biological potency of hGH [8]: less than 0.1%
